Reference: patent publication US8163771B2, “11 β-HSD1 modulators” (Exelixis, Inc., priority 2008, dated 2012)

Molecular target: T1, recombinant human 11 β-HSD1 (Homo sapiens, UniProt P28845)
T1 construct: made in house; host or cells: E. coli
Assay: 11 β-HSD1 SPA Assay (Scintillation Proximity Assay)
Type: biochemical
How it was run: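 Scintillation proximity read-out of cortisol formed from 40 nM [3H]cortisone by purified recombinant human enzyme (30-100 nM, E. coli) with 1 mM NADPH, pH7.4, 2 hours at room temperature; beads with cortisol antibody and glycyrrhetinic acid stop the reaction, read next day. IC50 derived from inhibition normalised to background and maximal wells.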

T1 sequence (P28845 whole entry): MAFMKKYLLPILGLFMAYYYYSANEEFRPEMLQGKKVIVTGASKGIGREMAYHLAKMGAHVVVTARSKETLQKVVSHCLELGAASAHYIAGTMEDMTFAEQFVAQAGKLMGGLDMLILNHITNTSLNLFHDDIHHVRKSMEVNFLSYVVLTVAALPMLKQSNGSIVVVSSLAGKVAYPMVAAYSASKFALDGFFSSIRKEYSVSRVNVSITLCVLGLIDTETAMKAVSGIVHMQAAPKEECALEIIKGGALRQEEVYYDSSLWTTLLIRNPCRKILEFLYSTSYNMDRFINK

Row | Compound | IC50
1 | CC(C)(Oc1ccc(Cl)cc1Br)C(=O)N[C@H]1C[C@H]2CC[C@@H](C1)N2c1ccc(C(=O)NCC(F)(F)F)cn1 [Example 337, 6-(3-endo-{[2-(2-bromo-4-chlorophenoxy)-2-methylpropanoyl]amino}-8-azabicyclo[3.2.1]oct-8-yl)-N-(2,2,2-trifluoroethyl)pyridine-3-carboxamide] | < 200 nM
2 | CC(C)(Oc1cc(Cl)c(F)cc1Cl)C(=O)N[C@H]1C[C@H]2CC[C@@H](C1)N2c1ccc(C(=O)NCC(F)(F)F)cn1 [Example 98, 6-[3-endo-({2-[(2,5-dichloro-4-fluorophenyl)oxy]-2-methylpropanoyl}amino)-8-azabicyclo[3.2.1]oct-8-yl]-N-(2,2,2-trifluoroethyl)pyridine-3-carboxamide] | < 200 nM
3 | CC(C)(Oc1c(Cl)cc(F)cc1C(F)(F)F)C(=O)N[C@H]1C[C@H]2CC[C@@H](C1)N2c1ccc(S(N)(=O)=O)cn1 [Example 251, N-{8-[5-(aminosulfonyl)pyridin-2-yl]-8-azabicyclo[3.2.1]oct-3-endo-yl}-2-{[2-chloro-4-fluoro-6-(trifluoromethyl)phenyl]oxy}-2-methylpropanamide] | < 200 nM
4 | CC(C)(Oc1ccc(Cl)cc1Cl)C(=O)N[C@H]1C[C@H]2CC[C@@H](C1)N2c1cccnc1 [Example 106, 2-[(2,4-dichlorophenyl)oxy]-2-methyl-N-(8-pyridin-3-yl-8-azabicyclo[3.2.1]oct-3-endo-yl)propanamide] | < 200 nM
5 | CC(C)(Oc1ccc(Cl)cc1S(C)(=O)=O)C(=O)NC1CC2CCC(C1)N2c1ccc(C(=O)NC2CC2(F)F)cn1 (stereo not drawn) [Example 357, 6-[3-endo-({2-[4-chloro-2-(methylsulfonyl)phenoxy]-2-methylpropanoyl}amino)-8-azabicyclo[3.2.1]oct-8-yl]-N-(2,2-difluorocyclopropyl)pyridine-3-carboxamide] | < 200 nM
6 | CS(=O)(=O)c1ccc(N2[C@@H]3CC[C@H]2C[C@@H](NC(=O)C2(c4ccc(F)c(C(F)(F)F)c4)CC2)C3)nc1 [Example 280, 1-[4-fluoro-3-(trifluoromethyl)phenyl]-N-{8-[5-(methylsulfonyl)pyridin-2-yl]-8-azabicyclo[3.2.1]oct-3-endo-yl}cyclopropanecarboxamide] | < 2000 nM
7 | CC(C)(Oc1ncc(Cl)cc1F)C(=O)N[C@H]1C[C@H]2CC[C@@H](C1)N2c1ccc(C(=O)NCC(F)(F)F)cn1 [Example 127, 6-[3-endo-({2-[(5-chloro-3-fluoropyridin-2-yl)oxy]-2-methylpropanoyl}amino)-8-azabicyclo[3.2.1]oct-8-yl]-N-(2,2,2-trifluoroethyl)pyridine-3-carboxamide] | < 200 nM
8 | CC(C)(Oc1ccc(Cl)cc1Cl)C(=O)N[C@H]1C[C@H]2CC[C@@H](C1)N2C(=O)c1ccc(C(N)=O)cc1 [Example 279, 4-{[3-endo-({2-[(2,4-dichlorophenyl)oxy]-2-methylpropanoyl}amino)-8-azabicyclo[3.2.1]oct-8-yl]carbonyl}benzamide] | < 2000 nM
9 | CC(C)(Oc1cc(OCCO)c(Cl)cc1Cl)C(=O)N[C@H]1C[C@H]2CC[C@@H](C1)N2c1ccc(C(=O)NCC(F)F)cn1 [Example 402, 6-(3-endo-(2-(2,4-dichloro-5-(2-hydroxyethoxy)phenoxy)-2-methylpropanamido)-8-azabicyclo[3.2.1]octan-8-yl)-N-(2,2-difluoroethyl)nicotinamide] | < 200 nM
10 | CC(C)(Oc1ccc(Cl)cc1Cl)C(=O)N[C@H]1C[C@H]2CC[C@@H](C1)N2C(=O)c1cccc(C(N)=O)c1 [Example 327, 3-{[3-endo-({2-[(2,4-dichlorophenyl)oxy]-2-methylpropanoyl)amino)-8-azabicyclo[3.2.1]oct-8-yl]carbonyl}benzamide] | < 2000 nM
11 | CC(C)(Oc1ccc(Cl)c(C(F)(F)F)c1)C(=O)N[C@H]1C[C@H]2CC[C@@H](C1)N2c1ccc(C(N)=O)cn1 [Example 185] | < 200 nM
12 | CC(C)c1cc(Cl)ccc1OC(C)(C)C(=O)N[C@H]1C[C@H]2CC[C@@H](C1)N2c1ccc(C(=O)NCC(F)(F)F)cn1 [Example 353, 6-[3-endo-({2-[4-chloro-2-(propan-2-yl)phenoxy]-2-methylpropanoyl}amino)-8-azabicyclo[3.2.1]oct-8-yl]-N-(2,2,2-trifluoroethyl)pyridine-3-carboxamide] | < 200 nM
13 | CC(C)(Oc1cc(OCC(=O)O)c(Cl)cc1Cl)C(=O)N[C@H]1C[C@H]2CC[C@@H](C1)N2c1ccc(C(=O)NCC(F)(F)F)cn1 [Example 413, 2-(2,4-dichloro-5-(2-methyl-1-oxo-1-(8-(5-(2,2,2-trifluoroethylcarbamoyl)pyridin-2-yl)-8-azabicyclo[3.2.1]octan-3-endo-ylamino)propan-2-yloxy)phenoxy)acetic acid] | < 200 nM
14 | CC(C)NC(=O)c1ccc(N2[C@@H]3CC[C@H]2C[C@@H](NC(=O)C(C)(C)Oc2ccc(Cl)c(Cl)c2)C3)nc1 [Example 79, 6-[3-endo-({2-[(3,4-dichlorophenyl)oxy]-2-methylpropanoyl}amino)-8-azabicycio[3.2.1]oct-8-yl]-N-(1-methylethyl)pyridine-3-carboxamide] | < 200 nM
15 | CC(C)(Oc1ccc(C(F)(F)F)cn1)C(=O)N[C@H]1C[C@H]2CC[C@@H](C1)N2c1ccc(S(N)(=O)=O)cc1 [Example 192, N-{8-[4-(aminosulfonyl)phenyl]-8-azabicyclo[3.2.1]oct-3-endo-yl}-2-methyl-2-{[5-(trifluoromethyl)pyridin-2-yl]oxy}propanamide] | < 2000 nM
